Assay [1] deals with Feces enterococci (VSE clinical isolates: MEFA 0039). Description: In vitro antibacterial activity, agar two times dilution method, MIC. It counts as cell-based. The settings on record: agar dilution; VSE clinical isolate MEFA 0039. The source says: (§1) Testing results of in vitro antibacterial activity of some target compounds of the present invention are as follows:
(§2) Drugs: firstly being dissolved in DMSO, and then being diluted to an appropriate concentration with sterile water, and afterwards successively being diluted for twice.
(§3) Determination: referencing the standard of CSSI 2008 version, using a agar two times dilution method, determine the minimum inhibitory concentration (MIC values).
(§4) Feces enterococci (VSE clinical isolates: MEFA 0039); Streptococcus pneumoniae (PISP: ATCC 49619).
(§5) 3. Positive Control Drug is Vancomycin Hydrochloride.

The subject of assay [2] is Streptococcus pneumoniae (PISP: ATCC 49619). The assay is described as above. Format: cell-based. The settings on record: for MIC Values of Compounds, Streptococcus pneumoniae: agar dilution, PISP ATCC 49619; for activity against streptococcus pneumoniae relative to vancomycin: compared with positive control vancomycin.
From the text: as §1, §2, §3, §4, §5

Data on 19 compounds can be found in patent US9982019B2, “Glycopeptide compound or pharmaceutical salt thereof and method for preparing same, and pharmaceutical compositions and applications thereof” (priority 2012, dated 2018).

Regarding `CNC(CC(C)C)C(=O)NC1C(=O)NC(CC(N)=O)C(=O)NC2C(=O)NC3C(=O)NC(C(=O)NC(C(=O)O)c4cc(O)c(CNCP(=O)(O)O)c(O)c4-c4cc3ccc4O)C(OC3CC(C)(N)C(O)C(C)O3)c3ccc(c(Cl)c3)Oc3cc2cc(c3OC2OC(CO)C(O)C(O)C2OC2CC(C)(N)C(O)C(C)O2)Oc2ccc(cc2Cl)C1O` (stereo not shown) [Compound I1], the “MIC Values of Compounds, Enterococci” value in assay [1] is 0.5 µg/mL. Also, the “MIC Values of Compounds, Streptococcus pneumoniae” value in assay [2] stood at 0.125 µg/mL.
The corresponding values for `CNC(CC(C)C)C(=O)NC1C(=O)NC(CC(N)=O)C(=O)NC2C(=O)NC3C(=O)NC(C(=O)NC(C(=O)O)c4cc(O)c(CN5CCOCC5)c(O)c4-c4cc3ccc4O)C(OC3CC(C)(N)C(O)C(C)O3)c3ccc(c(Cl)c3)Oc3cc2cc(c3OC2OC(CO)C(O)C(O)C2OC2CC(C)(N)C(O)C(C)O2)Oc2ccc(cc2Cl)C1O` (stereo not shown) [Compound I2] are 0.5 µg/mL and 0.063 µg/mL.
On to `CCCCCCCCCCNC1(C)CC(OC2c3ccc(c(Cl)c3)Oc3cc4cc(c3OC3OC(CO)C(O)C(O)C3OC3CC(C)(NCCCCCCCCCC)C(O)C(C)O3)Oc3ccc(cc3Cl)C(O)C(NC(=O)C(CC(C)C)N(C)CCCCCCCCCC)C(=O)NC(CC(N)=O)C(=O)NC4C(=O)NC3C(=O)NC2C(=O)NC(C(=O)O)c2cc(O)c(CNCCCC)c(O)c2-c2cc3ccc2O)OC(C)C1O` (stereo not shown) [Compound I4], for which the “MIC Values of Compounds, Enterococci” value in assay [1] is greater than 8 µg/mL. In assay [2], the “MIC Values of Compounds, Streptococcus pneumoniae” value was greater than 8 µg/mL.
As for `CNC(CC(C)C)C(=O)NC1C(=O)NC(CC(N)=O)C(=O)NC2C(=O)NC3C(=O)NC(C(=O)NC(C(=O)O)c4cc(O)c(CN5CCOCC5)c(O)c4-c4cc3ccc4O)C(OC3CC(C)(N)C(O)C(C)O3)c3ccc(c(Cl)c3)Oc3cc2cc(c3OC2OC(CO)C(O)C(O)C2OC2CC(C)(NCc3ccccc3Br)C(O)C(C)O2)Oc2ccc(cc2Cl)C1O` (stereo not shown) [Compound I5], in assay [1], the “MIC Values of Compounds, Enterococci” value was 0.25 µg/mL. The “MIC Values of Compounds, Streptococcus pneumoniae” value in assay [2] turned out to be 0.125 µg/mL.
In the case of `CCN(CC)Cc1c(O)cc2c(c1O)-c1cc(ccc1O)C1NC(=O)C3NC(=O)C(CC(N)=O)NC(=O)C(NC(=O)C(CC(C)C)NC)C(O)c4ccc(c(Cl)c4)Oc4cc3cc(c4OC3OC(CO)C(O)C(O)C3OC3CC(C)(NCc4ccccc4Br)C(O)C(C)O3)Oc3ccc(cc3Cl)C(OC3CC(C)(N)C(O)C(C)O3)C(NC1=O)C(=O)NC2C(=O)O` (stereo not shown) [Compound I6], the “MIC Values of Compounds, Enterococci” value in assay [1] came out at 1 µg/mL. Further, the “MIC Values of Compounds, Streptococcus pneumoniae” value in assay [2] amounted to 0.25 µg/mL.
Consider `CCCCNCc1c(O)cc2c(c1O)-c1cc(ccc1O)C1NC(=O)C3NC(=O)C(CC(N)=O)NC(=O)C(NC(=O)C(CC(C)C)NC)C(O)c4ccc(c(Cl)c4)Oc4cc3cc(c4OC3OC(CO)C(O)C(O)C3OC3CC(C)(NCc4ccccc4Br)C(O)C(C)O3)Oc3ccc(cc3Cl)C(OC3CC(C)(N)C(O)C(C)O3)C(NC1=O)C(=O)NC2C(=O)O` (stereo not shown) [Compound I7], for which the “MIC Values of Compounds, Enterococci” value in assay [1] was 1 µg/mL. For the same compound, the “MIC Values of Compounds, Streptococcus pneumoniae” value in assay [2] is 0.5 µg/mL.
As for `CNC(CC(C)C)C(=O)NC1C(=O)NC(CC(N)=O)C(=O)NC2C(=O)NC3C(=O)NC(C(=O)NC(C(=O)O)c4cc(O)c(CN5CCOCC5)c(O)c4-c4cc3ccc4O)C(OC3CC(C)(N)C(O)C(C)O3)c3ccc(c(Cl)c3)Oc3cc2cc(c3OC2OC(CO)C(O)C(O)C2OC2CC(C)(NCc3cccc(Br)c3)C(O)C(C)O2)Oc2ccc(cc2Cl)C1O` (stereo not shown) [Compound I8], the “MIC Values of Compounds, Enterococci” value in assay [1] came to 0.25 µg/mL. Besides, the “MIC Values of Compounds, Streptococcus pneumoniae” value in assay [2] was found to be 0.063 µg/mL.
Take `CNC(CC(C)C)C(=O)NC1C(=O)NC(CC(N)=O)C(=O)NC2C(=O)NC3C(=O)NC(C(=O)NC(C(=O)O)c4cc(O)c(CN5CCOCC5)c(O)c4-c4cc3ccc4O)C(OC3CC(C)(N)C(O)C(C)O3)c3ccc(c(Cl)c3)Oc3cc2cc(c3OC2OC(CO)C(O)C(O)C2OC2CC(C)(NCc3ccc(Br)cc3)C(O)C(C)O2)Oc2ccc(cc2Cl)C1O` (stereo not shown) [Compound I9]: the “MIC Values of Compounds, Enterococci” value in assay [1] worked out at 0.25 µg/mL. Besides, in assay [2], the “MIC Values of Compounds, Streptococcus pneumoniae” value is no more than 0.031 µg/mL and the “activity against streptococcus pneumoniae relative to vancomycin” value was “more four times than vancomycin”.
As to `CCN(CC)Cc1c(O)cc2c(c1O)-c1cc(ccc1O)C1NC(=O)C3NC(=O)C(CC(N)=O)NC(=O)C(NC(=O)C(CC(C)C)NC)C(O)c4ccc(c(Cl)c4)Oc4cc3cc(c4OC3OC(CO)C(O)C(O)C3OC3CC(C)(NCc4ccc(Br)cc4)C(O)C(C)O3)Oc3ccc(cc3Cl)C(OC3CC(C)(N)C(O)C(C)O3)C(NC1=O)C(=O)NC2C(=O)O` (stereo not shown) [Compound I10], the “MIC Values of Compounds, Enterococci” value in assay [1] was 2 µg/mL. Further, the “MIC Values of Compounds, Streptococcus pneumoniae” value in assay [2] worked out at 0.25 µg/mL.
Regarding `CCCCNCc1c(O)cc2c(c1O)-c1cc(ccc1O)C1NC(=O)C3NC(=O)C(CC(N)=O)NC(=O)C(NC(=O)C(CC(C)C)NC)C(O)c4ccc(c(Cl)c4)Oc4cc3cc(c4OC3OC(CO)C(O)C(O)C3OC3CC(C)(NCc4ccc(Br)cc4)C(O)C(C)O3)Oc3ccc(cc3Cl)C(OC3CC(C)(N)C(O)C(C)O3)C(NC1=O)C(=O)NC2C(=O)O` (stereo not shown) [Compound I11], in assay [1], the “MIC Values of Compounds, Enterococci” value is 1 µg/mL. In assay [2], the “MIC Values of Compounds, Streptococcus pneumoniae” value is 0.25 µg/mL.
In the case of `CNC(CC(C)C)C(=O)NC1C(=O)NC(CC(N)=O)C(=O)NC2C(=O)NC3C(=O)NC(C(=O)NC(C(=O)O)c4cc(O)c(CN5CCOCC5)c(O)c4-c4cc3ccc4O)C(OC3CC(C)(N)C(O)C(C)O3)c3ccc(c(Cl)c3)Oc3cc2cc(c3OC2OC(CO)C(O)C(O)C2OC2CC(C)(NCc3ccc(OC)cc3)C(O)C(C)O2)Oc2ccc(cc2Cl)C1O` (stereo not shown) [Compound I12], in assay [1], the “MIC Values of Compounds, Enterococci” value was determined as 2 µg/mL. In addition, in assay [2], the “MIC Values of Compounds, Streptococcus pneumoniae” value was determined as 1 µg/mL.
Taken in the same sequence, the figures for `CNC(CC(C)C)C(=O)NC1C(=O)NC(CC(N)=O)C(=O)NC2C(=O)NC3C(=O)NC(C(=O)NC(C(=O)O)c4cc(O)c(CN5CCOCC5)c(O)c4-c4cc3ccc4O)C(OC3CC(C)(N)C(O)C(C)O3)c3ccc(c(Cl)c3)Oc3cc2cc(c3OC2OC(CO)C(O)C(O)C2OC2CC(C)(NCc3ccc(C(C)C)cc3)C(O)C(C)O2)Oc2ccc(cc2Cl)C1O` (stereo not shown) [Compound I13] were 1 µg/mL and 0.25 µg/mL.
For the compound `CCCCNCc1c(O)cc2c(c1O)-c1cc(ccc1O)C1NC(=O)C3NC(=O)C(CC(N)=O)NC(=O)C(NC(=O)C(CC(C)C)NC)C(O)c4ccc(c(Cl)c4)Oc4cc3cc(c4OC3OC(CO)C(O)C(O)C3OC3CC(C)(NCc4ccc(C(C)C)cc4)C(O)C(C)O3)Oc3ccc(cc3Cl)C(OC3CC(C)(N)C(O)C(C)O3)C(NC1=O)C(=O)NC2C(=O)O` (stereo not shown) [Compound I14], the “MIC Values of Compounds, Enterococci” value in assay [1] is 0.5 µg/mL. For the same compound, in assay [2], the “MIC Values of Compounds, Streptococcus pneumoniae” value is no more than 0.031 µg/mL and the “activity against streptococcus pneumoniae relative to vancomycin” value is listed as “more four times than vancomycin”.
For `CCCCNCc1c(O)cc2c(c1O)-c1cc(ccc1O)C1NC(=O)C3NC(=O)C(CC(N)=O)NC(=O)C(N4CN(C)C(CC(C)C)C4=O)C(O)c4ccc(c(Cl)c4)Oc4cc3cc(c4OC3OC(CO)C(O)C(O)C3OC3CC(C)(N)C(O)C(C)O3)Oc3ccc(cc3Cl)C(OC3CC(C)(N)C(O)C(C)O3)C(NC1=O)C(=O)NC2C(=O)O` (stereo not shown) [II1], in assay [1], the “MIC Values of Compounds, Enterococci” value amounted to 0.25 µg/mL. The “MIC Values of Compounds, Streptococcus pneumoniae” value in assay [2] came to 0.125 µg/mL.
As to `CCN(CC)Cc1c(O)cc2c(c1O)-c1cc(ccc1O)C1NC(=O)C3NC(=O)C(CC(N)=O)NC(=O)C(N4CN(C)C(CC(C)C)C4=O)C(O)c4ccc(c(Cl)c4)Oc4cc3cc(c4OC3OC(CO)C(O)C(O)C3OC3CC(C)(NCc4ccccc4Br)C(O)C(C)O3)Oc3ccc(cc3Cl)C(OC3CC(C)(N)C(O)C(C)O3)C(NC1=O)C(=O)NC2C(=O)O` (stereo not shown) [II2], the “MIC Values of Compounds, Enterococci” value in assay [1] turned out to be 2 µg/mL. For the same compound, in assay [2], the “MIC Values of Compounds, Streptococcus pneumoniae” value is 0.5 µg/mL.
Consider `CCCCNCc1c(O)cc2c(c1O)-c1cc(ccc1O)C1NC(=O)C3NC(=O)C(CC(N)=O)NC(=O)C(N4CN(C)C(CC(C)C)C4=O)C(O)c4ccc(c(Cl)c4)Oc4cc3cc(c4OC3OC(CO)C(O)C(O)C3OC3CC(C)(NCc4ccccc4Br)C(O)C(C)O3)Oc3ccc(cc3Cl)C(OC3CC(C)(N)C(O)C(C)O3)C(NC1=O)C(=O)NC2C(=O)O` (stereo not shown) [II3], for which the “MIC Values of Compounds, Enterococci” value in assay [1] is 2 µg/mL. Further, the “MIC Values of Compounds, Streptococcus pneumoniae” value in assay [2] was determined as 0.25 µg/mL.
Turning to `CCN(CC)Cc1c(O)cc2c(c1O)-c1cc(ccc1O)C1NC(=O)C3NC(=O)C(CC(N)=O)NC(=O)C(N4CN(C)C(CC(C)C)C4=O)C(O)c4ccc(c(Cl)c4)Oc4cc3cc(c4OC3OC(CO)C(O)C(O)C3OC3CC(C)(NCc4cccc(Br)c4)C(O)C(C)O3)Oc3ccc(cc3Cl)C(OC3CC(C)(N)C(O)C(C)O3)C(NC1=O)C(=O)NC2C(=O)O` (stereo not shown) [II4], in assay [1], the “MIC Values of Compounds, Enterococci” value was found to be 2 µg/mL. Besides, the “MIC Values of Compounds, Streptococcus pneumoniae” value in assay [2] stood at 0.25 µg/mL.
As to `CCCCNCc1c(O)cc2c(c1O)-c1cc(ccc1O)C1NC(=O)C3NC(=O)C(CC(N)=O)NC(=O)C(N4CN(C)C(CC(C)C)C4=O)C(O)c4ccc(c(Cl)c4)Oc4cc3cc(c4OC3OC(CO)C(O)C(O)C3OC3CC(C)(NCc4cccc(Br)c4)C(O)C(C)O3)Oc3ccc(cc3Cl)C(OC3CC(C)(N)C(O)C(C)O3)C(NC1=O)C(=O)NC2C(=O)O` (stereo not shown) [II5], in assay [1], the “MIC Values of Compounds, Enterococci” value is 1 µg/mL. The “MIC Values of Compounds, Streptococcus pneumoniae” value in assay [2] was 0.25 µg/mL.
In the case of `CC(C)CC1C(=O)N(C2C(=O)NC(CC(N)=O)C(=O)NC3C(=O)NC4C(=O)NC(C(=O)NC(C(=O)O)c5cc(O)c(CN6CCOCC6)c(O)c5-c5cc4ccc5O)C(OC4CC(C)(N)C(O)C(C)O4)c4ccc(c(Cl)c4)Oc4cc3cc(c4OC3OC(CO)C(O)C(O)C3OC3CC(C)(NCc4cccc(Br)c4)C(O)C(C)O3)Oc3ccc(cc3Cl)C2O)CN1C` (stereo not shown) [II6], in assay [1], the “MIC Values of Compounds, Enterococci” value was found to be 2 µg/mL. Moreover, the “MIC Values of Compounds, Streptococcus pneumoniae” value in assay [2] amounted to 0.25 µg/mL.
